In assay [1] the target is T1, Cbl-b (Homo sapiens, UniProt Q13191). The assay is described as follows: Cbl-b inhibition assay (Cbl-b activity assay, FRET, Biological Example 1; 100 mM NaCl, 60 nM Src kinase). It counts as biochemical. Particulars: upper bound stated in text lists; read-out: IC50 values in the Cbl-b inhibition assay of Biological Example 1. From the text: FIG. 1A and FIG. 1B show a series of diagrams depicting the activity assay utilized to assay inhibition of Cbl-b activity by a Cbl-b inhibitor. FIG. 1A: The activity assay mixture comprises an N-terminal biotinylated Avi-tagged Cbl-b, an E2 enzyme (i.e., UbcH5B) irreversibly conjugated to Bodipy-Fluorescein tagged ubiquitin (i.e., UbcH5B-Ub), a Src kinase, streptavidin-terbium, and assay buffer. Phosphorylation of Cbl-b by the Src kinase allows UbcH5B-Ub to bind to Cbl-b and bring the Bodipy-Fluorescein tagged ubiquitin in proximity to the streptavidin-terbium bound to the N-terminal biotinylated Avi-tagged Cbl-b. […] FIG. 1B: In the presence of a Cbl-b inhibitor, such as one described herein, Cbl-b is unable to bind UbcH5B-Ub. The lack of a FRET signal indicates Cbl-b is inhibited by the Cbl-b inhibitor. Ub indicates ubiquitin; N-Avi indicates biotinylated Avi-tag at the N-terminus of Cbl-b; inhibitor indicates Cbl-b inhibitor.
The lack of a FRET signal indicates Cbl-b is inhibited by the Cbl-b inhibitor. In FIG. 1A and FIG. 1B, Ub indicates ubiquitin; N-Avi indicates biotinylated Avi-tag at the N-terminus of Cbl-b; and inhibitor indicates Cbl-b inhibitor.

For assay [2], the target named is T1, Cbl-b. As to the kind of experiment: Cbl-b activity assay (Cbl-b inhibition assay), TR-FRET of Cbl-b interaction with UbcH5B-Ub. It counts as biochemical. Conditions: assay buffer with 100 mM NaCl, 60 nM Src kinase; read-out: Cbl-b activity IC50. As to the method:
The ability of candidate compounds to inhibit Cbl-b activity was measured by monitoring the interaction of Cbl-b with UbcH5B-Ub in the presence of the candidate compound.
Fluorescently labeled UbcH5B-Ub was prepared by conjugating ubiquitin (Ub), labeled at its N-terminus with Bodipy-Fluorescein, to UbcH5B, an E2 enzyme, harboring a cysteine to lysine mutation at position 85. […] After incubation in the presence of the candidate compound, the plate was incubated for an additional 1.5 hours in the presence of 60 nM Src kinase with 1 mM ATP and 5 mM MgCl2 (final concentrations). […] The plate was incubated for 1 hour.
Column marked with an asterisk (*) were tested as described above with assay buffer containing 50 mM NaCl instead of 100 mM NaCl and 30 nM Src kinase instead of 60 nM Src kinase. The resulting data for the Cbl-b binding assay was solvent corrected and double referenced prior to analysis. All data were globally fit to a steady-state affinity and kinetic binding model where applicable). Fit parameters were derived from a 1:1 binding model using the Biacore T200 Evaluation Software V2.0 (GE Healthcare) (Table 2).
(In general: TR-FRET usually uses a lanthanide donor and a delayed reading to cut background.)

pIC50: −log10 of the molar value. Where only a bound is given, the exact number is not on record here.

T1 sequence (Q13191 36-427): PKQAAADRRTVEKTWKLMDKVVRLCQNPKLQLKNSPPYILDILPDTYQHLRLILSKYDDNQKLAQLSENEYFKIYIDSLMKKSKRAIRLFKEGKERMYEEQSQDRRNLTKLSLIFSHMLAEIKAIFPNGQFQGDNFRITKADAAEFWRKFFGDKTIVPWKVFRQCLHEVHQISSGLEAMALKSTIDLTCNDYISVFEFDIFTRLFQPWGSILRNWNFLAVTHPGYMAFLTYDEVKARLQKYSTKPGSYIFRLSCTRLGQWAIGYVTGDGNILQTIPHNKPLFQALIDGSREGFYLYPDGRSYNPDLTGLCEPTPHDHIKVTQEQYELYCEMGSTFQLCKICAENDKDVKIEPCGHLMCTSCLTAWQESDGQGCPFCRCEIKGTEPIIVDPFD

`Cn1cnnc1CC1(c2cccc(N3Cc4c(cc(CN5CC[C@@H](F)[C@@H](F)C5)cc4C(F)(F)F)C3=O)c2)COC1` (relative stereo) [Example 634, 6-((cis-3,4-difluoropiperidin-1-yl)methyl)-2-(3-(3-((4-methyl-4H-1,2,4-triazol-3-yl)methyl)oxetan-3-yl)phenyl)-4-(trifluoromethyl)isoindolin-1-one]: the pIC50 at Cbl-b [1] is not below 7.00; on Cbl-b [2], more than 7.00.
As to `Cn1cnnc1CC1(c2cccc(N3Cc4c(cc(CN5CC[C@@H]6OCC[C@@H]6C5)cc4C(F)(F)F)C3=O)c2)COC1` (relative stereo) [Example 708, rel-6-[(3aR,7aS)-hexahydro-2H-furo[3,2-c]pyridin-5-ylmethyl]-2-(3-{3-[(4-methyl-1,2,4-triazol-3-yl)methyl]oxetan-3-yl}phenyl)-4-(trifluoromethyl)-3H-isoindol-1-one], the pIC50 is not below 7.00 at Cbl-b [1] and more than 7.00 at Cbl-b [2].
The like results for `Cn1cnnc1CC1(c2cccc(N3Cc4c(cc(CN5CC[C@@H]6NCCO[C@@H]6C5)cc4C(F)(F)F)C3=O)c2)COC1` (relative stereo) [Example 713, rel-6-[(4aR,8aS)-octahydropyrido[3,4-b][1,4]oxazin-6-ylmethyl]-2-(3-{3-[(4-methyl-1,2,4-triazol-3-yl)methyl]oxetan-3-yl}phenyl)-4-(trifluoromethyl)-3H-isoindol-1-one] were, in that order, not below 7.00 and more than 7.00.
For the compound `CN1CC[C@@H](O)[C@H](Cc2cc3c(c(C(F)(F)F)c2)CN(c2cccc(C4(Cc5nncn5C)COC4)c2)C3=O)C1` (single isomer, unassigned) [Compound 533], the pIC50 at Cbl-b [1] was not below 7.00; at Cbl-b [2], more than 7.00.
In the case of `CC(c1cc(C(=O)Nc2cccc(C3(Cc4nncn4C)COC3)c2)nc(C2CC2)n1)N1CCC2(CC2)C1` (stereo in doubt) [Example 592b, (S)-6-(1-(5-azaspiro[2.4]heptan-5-yl)ethyl)-2-cyclopropyl-N-(3-(3-((4-methyl-4H-1,2,4-triazol-3-yl)methyl)oxetan-3-yl)phenyl)pyrimidine-4-carboxamide], the pIC50 on Cbl-b [1] is not below 7.00; at Cbl-b [2], more than 7.00.
For `C[C@H](Sc1nncn1C)c1cccc(NC(=O)c2cccc(N(C)C)c2)c1` [Compound 26, (S)-3-(Dimethylamino)-N-(3-(1-((4-methyl-4H-1,2,4-triazol-3-yl)thio)ethyl)phenyl)benzamide], in that order: not below 5.00 and less than 5.00.
For `C[C@H](Sc1nncn1C)c1cccc(NC(=O)c2cccc(N)c2)c1` [Compound 58, (S)-3-amino-N-(3-(1-((4-methyl-4H-1,2,4-triazol-3-yl)thio)ethyl)phenyl)benzamide], in that order: not below 5.00 and 5.00 to 5.52.
On to `C[C@H](Sc1nncn1C)c1cccc(NC(=O)c2cc3ccccc3c(C(F)(F)F)n2)c1` [Compound 63, (S)-N-(3-(1-((4-methyl-4H-1,2,4-triazol-3-yl)thio)ethyl)phenyl)-1-(trifluoromethyl)isoquinoline-3-carboxamide], for which the pIC50 at Cbl-b [1] was not below 5.00; on Cbl-b [2], 5.00 to 5.52.
For `CC(Sc1nncn1C)c1ccc(OC(F)(F)F)c(NC(=O)c2cccc(C(F)(F)F)n2)c1` (stereo not shown) [Compound 94, N-(5-(1-((4-methyl-4H-1,2,4-triazol-3-yl)thio)ethyl)-2-(trifluoromethoxy)phenyl)-6-(trifluoromethyl)picolinamide], in that order: not below 5.00 and 5.52 to 6.00.
Regarding `C[C@H](Sc1nncn1C)c1ccnc(NC(=O)c2ccc(Cl)c(C(F)(F)F)n2)c1` [Compound 106, (S)-5-chloro-N-(4-(1-((4-methyl-4H-1,2,4-triazol-3-yl)thio)ethyl)pyridin-2-yl)-6-(trifluoromethyl)picolinamide], the pIC50 is not below 5.00 at Cbl-b [1] and 5.52 to 6.00 on Cbl-b [2].
`C[C@H](Sc1nncn1C)c1ccnc(NC(=O)c2noc3ccccc23)c1` [Compound 115, (S)-N-(4-(1-((4-methyl-4H-1,2,4-triazol-3-yl)thio)ethyl)pyridin-2-yl)benzo[d]isoxazole-3-carboxamide]: the negative-log IC50 (pIC50) at Cbl-b [1] is not below 5.00; at Cbl-b [2], 5.00 to 5.52.
As to `C[C@H](Sc1nncn1C)c1ccnc(NC(=O)c2csc(C(F)(F)F)n2)c1` [Compound 118, N-[4-[(1S)-1-[(4-methyl-1,2,4-triazol-3-yl)sulfanyl]ethyl]-2-pyridyl]-2-(trifluoromethyl)thiazole-4-carboxamide], the figures for the pIC50 at Cbl-b [1] and on Cbl-b [2] were not below 5.00 and 5.52 to 6.00, respectively.
For `C[C@H](Sc1nncn1C)c1ccnc(NC(=O)c2cc(Br)cc(C(F)(F)F)n2)c1` [Compound 119, 4-bromo-N-[4-[(1S)-1-[(4-methyl-1,2,4-triazol-3-yl)sulfanyl]ethyl]-2-pyridyl]-6-(trifluoromethyl)pyridine-2-carboxamide], in that order: not below 6.00 and 6.00 to 6.52.
The like results for `CC(Sc1nncn1C)c1cncc(NC(=O)c2cccc(C(F)(F)F)n2)c1` (stereo not shown) [Compound 127, N-[5-[1-[(4-methyl-1,2,4-triazol-3-yl)sulfanyl]ethyl]-3-pyridyl]-6-(trifluoromethyl)pyridine-2-carboxamide] were, in that order, not below 5.00 and 5.00 to 5.52.
The like results for `Cc1c[nH]nc1S[C@@H](C)c1ccnc(NC(=O)c2ccc3ccccc3n2)c1` [Compound 128a, (S)-N-(4-(1-((4-methyl-1H-pyrazol-3-yl)thio)ethyl)pyridin-2-yl)quinoline-2-carboxamide] were, in that order, not below 5.00 and 5.52 to 6.00.
On to `Cc1cn(C)c(SC(C)c2ccnc(NC(=O)c3ccc4ccccc4n3)c2)n1` (stereo not shown) [Compound 129, N-(4-(1-((1,4-dimethyl-1H-imidazol-2-yl)thio)ethyl)pyridin-2-yl)quinoline-2-carboxamide], for which the pIC50 is not below 5.00 at Cbl-b [1] and less than 5.00 on Cbl-b [2].
For `CC(Sc1nncn1C)c1cc(NC(=O)c2ccc3ccccc3n2)c2c(c1)C(C)(O)CC2` (stereo not shown) [Compound 131, N-(1-hydroxy-1-methyl-6-(1-(4-methyl-4H-1,2,4-triazol-3-ylthio)ethyl)-2,3-dihydro-1H-inden-4-yl)quinoline-2-carboxamide], the pIC50 at Cbl-b [1] was not below 5.00; on Cbl-b [2], 5.00 to 5.52.
The like results for `C[C@H](Sc1nncn1C)c1cccc(NC(=O)c2cc(C(=O)N3CCC[C@H]3C)ccn2)c1` [Compound 142, N-(3-((S)-1-((4-methyl-4H-1,2,4-triazol-3-yl)thio)ethyl)phenyl)-4-((R)-2-methylpyrrolidine-1-carbonyl)picolinamide] were, in that order, not below 5.00 and less than 5.00.
The like results for `C[C@H](Sc1nncn1C)c1cccc(NC(=O)c2cc(C(=O)N3CCC(S(C)(=O)=O)C3)ccn2)c1` (stereo partly shown) [Compound 158, N-(3-((A)-1-((4-methyl-4H-1,2,4-triazol-3-yl)thio)ethyl)phenyl)-4-(3-(methylsulfonyl)pyrrolidine-1-carbonyl)picolinamide] were, in that order, not below 5.00 and 5.00 to 5.52.
As for `CC(Sc1nncn1C)c1cccc(N2Cc3ccc(C(C)(C)O)cc3C2=O)c1` (stereo not shown) [Compound 165, 6-(1-hydroxy-1-methyl-ethyl)-2-[3-[1-[(4-methyl-1,2,4-triazol-3-yl)sulfanyl]ethyl]phenyl]isoindolin-1-one], the results for the pIC50 at Cbl-b [1] and on Cbl-b [2] were not below 5.00 and 5.00 to 5.52, respectively.
The like results for `CNC(=O)c1ccc2c(c1)C(=O)N(c1cc(C(C)Sc3nncn3C)ccn1)C2` (stereo not shown) [Compound 173, N-methyl-2-(4-[1-[(4-methyl-4H-1,2,4-triazol-3-yl)sulfanyl]ethyl]pyridin-2-yl)-3-oxo-2,3-dihydro-1H-isoindole-5-carboxamide] were, in that order, not below 5.00 and 5.00 to 5.52.
With `CC(Sc1nncn1C)c1cc(NCCO)nc(N2Cc3c(cccc3C(F)(F)F)C2=O)c1` (stereo not shown) [Compound 174, 2-[6-(2-hydroxyethylamino)-4-[1-[(4-methyl-1,2,4-triazol-3-yl)sulfanyl]ethyl]-2-pyridyl]-4-(trifluoromethyl)isoindolin-1-one], the figures for the pIC50 at Cbl-b [1] and on Cbl-b [2] were not below 5.00 and 5.52 to 6.00, respectively.
`C[C@H](Cc1nncn1C)c1cccc(NC(=O)c2ccn(C)n2)c1` [Compound 197, (R)-1-methyl-N-(3-(1-(4-methyl-4H-1,2,4-triazol-3-yl)propan-2-yl)phenyl)-1H-pyrazole-3-carboxamide]: the figures for the negative logarithm of the IC50 (pIC50) on Cbl-b [1] and on Cbl-b [2] were not below 5.00 and 5.52 to 6.00, respectively.

In general, pIC50 refers to −log10 of the IC50, conventionally taken in molar units.

The values are drawn from patent US20220324835A1 (Nurix Therapeutics, Inc., priority 2018, published 2022).
